Data as given in ChEMBL document CHEMBL3046304, “Discovery of a series of novel compounds with moderate anti-avian H5N1 influenza virus activity in chick embryo” (Med Chem Res, 2013).
pIC50: −log10 of the molar value.

Key:
[1] = test system: Influenza A virus; assay: Ratio of compound MED to oseltamivir carboxylate MED for influenza A virus (A/duck/China/QJ/01(H5N1)) infected in chick embryo measured after 5 days by hemagglutination assay; type: functional
[2] = test system: Influenza A virus; assay: Ratio of compound MED to oseltamivir MED for influenza A virus (A/duck/China/QJ/01(H5N1)) infected in chick embryo measured after 5 days by hemagglutination assay; type: functional
[3] = Inhibition of neuraminidase
[4] = test system: Influenza A virus; type: functional
[5] = target: T1, Neuraminidase (Influenza A virus, UniProt B4URF0); set-up: species or system (A/duck/China/QJ/01(H5N1))
T1 sequence (B4URF0 whole entry): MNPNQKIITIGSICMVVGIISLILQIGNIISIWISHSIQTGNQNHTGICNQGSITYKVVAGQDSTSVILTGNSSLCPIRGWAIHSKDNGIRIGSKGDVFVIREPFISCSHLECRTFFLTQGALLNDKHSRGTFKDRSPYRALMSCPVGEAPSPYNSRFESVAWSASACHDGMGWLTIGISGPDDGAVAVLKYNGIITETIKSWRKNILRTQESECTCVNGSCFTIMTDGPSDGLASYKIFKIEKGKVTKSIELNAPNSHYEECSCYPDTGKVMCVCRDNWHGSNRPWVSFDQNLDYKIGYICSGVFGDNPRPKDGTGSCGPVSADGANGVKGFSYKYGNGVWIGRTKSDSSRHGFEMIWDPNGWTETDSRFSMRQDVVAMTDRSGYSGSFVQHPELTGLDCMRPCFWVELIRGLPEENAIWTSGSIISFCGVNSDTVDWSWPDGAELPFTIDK

[6] = target: T1, Neuraminidase; set-up: species or system (A/chicken/Shandong/LY/2008(H9N2))

SMILES | Ratio [1] | Ratio [2] | pIC50 [3] | MED [4] [µM] | pIC50 [5] | pIC50 [6]
O=c1cc(-c2ccc(O)cc2)oc2cc(O)cc(O)c12 [APIGENIN] | 4 | 4 | – | – | – | –
NC(Cn1ccc(=O)c(O)c1)C(=O)N[C@@H](Cc1ccccc1)C(=O)O (stereo partly specified) | – | – | 5.74 | – | – | –
CC[C@H](C)[C@H](N)C(=O)Nc1cc(NC(=O)/C=C/c2ccco2)ccc1O.Cl | 4 | 4 | – | 2.5 | 3.99 | 3.92
C[C@H](N)C(=O)Nc1cc(NC(=O)/C=C/c2ccco2)ccc1O.Cl | 4 | 4 | – | 5 | 3.96 | 4.04
Cl.NCCCC(=O)Nc1cc(NC(=O)/C=C/c2ccco2)ccc1O | 4 | 4 | – | 5 | 3.88 | 3.78
CC(C)C[C@H](N)C(=O)Nc1cc(NC(=O)/C=C/c2ccc(O)c(O)c2)ccc1O.Cl | 4 | 4 | – | 2.5 | 3.87 | 3.81
CC(C)[C@H](N)C(=O)Nc1cc(NC(=O)/C=C/c2ccc(O)c(O)c2)ccc1O.Cl | 4 | 4 | – | 2.5 | 3.94 | 3.86
CCOC(=O)C1=C[C@@H](OC(CC)CC)[C@H](NC(C)=O)[C@@H](N)C1.O=P(O)(O)O [OSELTAMIVIR PHOSPHATE] | – | – | – | 0.625 | – | –
NC(Cn1ccc(=O)c(O)c1)C(=O)N[C@@H](Cc1ccc(O)cc1)C(=O)O (stereo partly specified) | – | – | 5.55 | – | – | –
Cl.NCC(=O)Nc1cc(NC(=O)/C=C/c2ccco2)ccc1O | 4 | 4 | – | 5 | 3.86 | 3.76
CSCC[C@H](N)C(=O)Nc1cc(NC(=O)/C=C/c2ccco2)ccc1O.Cl | 4 | 4 | – | 5 | 3.92 | 3.84
CC(C)[C@H](N)C(=O)Nc1cc(NC(=O)/C=C/c2ccco2)ccc1O.Cl | 4 | 4 | – | 2.5 | 3.76 | 3.78
Cl.N[C@@H](Cc1c[nH]c2ccccc12)C(=O)Nc1cc(NC(=O)/C=C/c2ccco2)ccc1O | 4 | 4 | – | 2.5 | 3.72 | 3.71
Cl.NCCCC[C@H](N)C(=O)Nc1cc(NC(=O)/C=C/c2ccco2)ccc1O | 4 | 4 | – | 5 | 3.65 | 3.67
Cl.N[C@@H](Cc1ccccc1)C(=O)Nc1cc(NC(=O)/C=C/c2ccco2)ccc1O | 4 | 4 | – | 5 | 3.89 | 3.84
Cl.NCCC(=O)Nc1cc(NC(=O)/C=C/c2ccco2)ccc1O | 4 | 4 | – | 5 | 3.97 | 3.93
Cl.O=C(/C=C/c1ccco1)Nc1ccc(O)c(NC(=O)[C@@H]2CCCN2)c1 | 4 | 4 | – | 5 | 4.24 | 4.07
Cl.N=C(NCCC[C@H](N)C(=O)Nc1cc(NC(=O)/C=C/c2ccco2)ccc1O)N[N+](=O)[O-] | 4 | 4 | – | 5 | 3.72 | 3.71
C[C@@H](O)[C@H](N)C(=O)Nc1cc(NC(=O)/C=C/c2ccco2)ccc1O.Cl | 4 | 4 | – | 5 | 3.73 | 3.70
Cl.N[C@@H](CO)C(=O)Nc1cc(NC(=O)/C=C/c2ccco2)ccc1O | 4 | 4 | – | 5 | 3.84 | 3.80
CC[C@H](C)[C@H](N)C(=O)Nc1cc(NC(=O)/C=C/c2ccc(O)c(O)c2)ccc1O.Cl | 4 | 4 | – | 2.5 | 7.92 | 8.77
C[C@H](N)C(=O)Nc1cc(NC(=O)/C=C/c2ccc(O)c(O)c2)ccc1O.Cl | 4 | 4 | – | 5 | 3.95 | 3.98
Cl.O=C(/C=C/c1ccco1)Nc1ccc(O)c(NC(=O)[C@@H]2C[C@@H](O)CN2)c1 | 4 | 4 | – | 5 | 3.96 | 3.95
CCC(CC)O[C@@H]1C=C(C(=O)O)C[C@H](N)[C@H]1NC(C)=O.Cl [OSELTAMIVIR CARBOXYLATE HYDROCHLORIDE] | – | – | – | 0.625 | – | –
CC(C)C[C@H](N)C(=O)Nc1cc(NC(=O)/C=C/c2ccco2)ccc1O.Cl | 4 | 4 | – | 5 | 3.83 | 3.75
